Laboratory results published in article PMC6261661 (ACS chemical neuroscience, 2018).
Square brackets hold non-standard residues; d marks the D form. Peptide text beside a SMILES is read from it. * marks the point of attachment. dBip = N[C@H](Cc1ccc(-c2ccccc2)cc1)C(=O)O; dPhe(4-I) = N[C@H](Cc1ccc(I)cc1)C(=O)O; 1Nal = N[C@@H](Cc1cccc2ccccc12)C(=O)O; 2Nal = N[C@@H](Cc1ccc2ccccc2c1)C(=O)O; d1Nal = N[C@H](Cc1cccc2ccccc12)C(=O)O; d2Nal = N[C@H](Cc1ccc2ccccc2c1)C(=O)O; Bta = N[C@@H](Cc1csc2ccccc12)C(=O)O; 3Pal = N[C@@H](Cc1cccnc1)C(=O)O; Tic = O=C(O)[C@@H]1Cc2ccccc2CN1; 2Thi = N[C@@H](Cc1cccs1)C(=O)O; Octanoyl = CCCCCCCC(=O)*

Assays:
Type in all cases: cell-based
[1] = target: mMC5R (Mus musculus, UniProt P41149); experiment: CRE/β-galactosidase reporter gene bioassay, agonist activity at mMC5R; conditions: for mMC5R pharmacology in words: comparisons are to reference peptide 1; for mMC5R Fold Diff.: fold difference in EC50 vs peptide 1, negative prefix = more potent than 1; for mMC5R fold less potent than peptide 1: less potent than 1
mMC5R, sequence (P41149 whole entry): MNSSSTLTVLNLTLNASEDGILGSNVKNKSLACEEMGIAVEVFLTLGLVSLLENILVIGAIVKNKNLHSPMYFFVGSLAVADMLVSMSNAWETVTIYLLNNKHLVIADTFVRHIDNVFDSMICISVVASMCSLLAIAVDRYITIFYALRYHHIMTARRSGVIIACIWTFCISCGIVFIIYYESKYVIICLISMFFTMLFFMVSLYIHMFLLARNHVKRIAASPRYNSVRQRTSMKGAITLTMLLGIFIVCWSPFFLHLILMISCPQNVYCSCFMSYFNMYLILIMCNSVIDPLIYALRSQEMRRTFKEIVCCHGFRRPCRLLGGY

[2] = target: mMC1R (Mus musculus, UniProt Q01727); experiment: CRE/β-galactosidase reporter gene bioassay, agonist activity at mMC1R; conditions: for mMC1R Fold Diff: fold difference in EC50 vs peptide 1, negative prefix = more potent than 1; for EC50: mMC1R EC50, agonist, HEK-293 cells stably expressing receptor, ±SEM; for mMC1R fold difference in EC50, more potent than reference peptide 1: more potent agonist than 1; for mMC1R pharmacology in words: comparisons are to reference peptide 1; for mMC1R fold decrease in potency compared to compound 1: less potent than 1
mMC1R, sequence (Q01727 whole entry): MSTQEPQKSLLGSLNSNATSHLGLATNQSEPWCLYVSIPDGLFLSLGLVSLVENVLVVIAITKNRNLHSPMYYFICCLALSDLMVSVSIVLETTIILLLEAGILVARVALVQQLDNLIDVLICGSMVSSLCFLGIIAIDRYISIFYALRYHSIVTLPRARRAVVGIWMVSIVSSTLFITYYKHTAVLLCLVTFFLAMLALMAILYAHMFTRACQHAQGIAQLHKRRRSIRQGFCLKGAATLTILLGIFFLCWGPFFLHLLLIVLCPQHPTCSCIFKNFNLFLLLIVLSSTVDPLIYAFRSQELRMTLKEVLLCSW

[3] = target: T1, mMC3R (Mus musculus, UniProt P33033); experiment: cell-based; conditions: for mMC3R Fold Diff: fold difference in EC50 vs peptide 1, negative prefix = more potent than 1
T1 sequence (P33033 whole entry): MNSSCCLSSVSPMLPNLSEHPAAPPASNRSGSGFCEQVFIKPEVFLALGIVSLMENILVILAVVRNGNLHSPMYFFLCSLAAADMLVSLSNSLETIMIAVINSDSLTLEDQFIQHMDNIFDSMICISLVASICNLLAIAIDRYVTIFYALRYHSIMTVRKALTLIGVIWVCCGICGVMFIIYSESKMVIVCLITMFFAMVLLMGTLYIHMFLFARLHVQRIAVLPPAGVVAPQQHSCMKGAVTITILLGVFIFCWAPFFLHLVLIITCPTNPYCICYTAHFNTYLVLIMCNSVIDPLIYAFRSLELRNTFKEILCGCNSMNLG

[4] = target: mMC4R (Mus musculus, UniProt P56450); experiment: CRE/β-galactosidase reporter gene bioassay, agonist activity at mMC4R; conditions: for mMC4R Fold Diff.: fold difference in EC50 vs peptide 1, negative prefix = more potent than 1; for mMC4R fold less potent than compound 1: less potent than 1
mMC4R, sequence (P56450 whole entry): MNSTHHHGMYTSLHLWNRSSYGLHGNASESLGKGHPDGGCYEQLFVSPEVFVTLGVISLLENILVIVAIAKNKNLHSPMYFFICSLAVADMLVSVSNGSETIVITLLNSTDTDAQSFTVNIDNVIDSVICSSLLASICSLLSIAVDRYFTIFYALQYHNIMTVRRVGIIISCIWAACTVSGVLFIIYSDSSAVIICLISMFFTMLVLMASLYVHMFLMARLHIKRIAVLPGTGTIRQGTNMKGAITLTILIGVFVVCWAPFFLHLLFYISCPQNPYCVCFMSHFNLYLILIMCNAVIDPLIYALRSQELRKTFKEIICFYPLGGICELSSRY

[5] = target: T1, mMC3R; experiment: Antagonist Schild analysis against agonist MTII at mMC3R
[6] = ligand at 100 μM, compared to maximal response generated by α-MSH

SMILES | EC50 [1] | mMC1R Fold Diff [2] | EC50 [2] | EC50 [3] | EC50 [4] | mMC5R pharmacology in words [1] | mMC4R Fold Diff. [4] | mMC5R Fold Diff. [1] | also measured
CC(=O)N[C@@H](Cc1cnc[nH]1)C(=O)N[C@H](Cc1ccccc1)C(=O)N[C@@H](CCCN=C(N)N)C(=O)N[C@@H](Cc1c[nH]c2ccccc12)C(N)=O [Peptide 1, Ac-His-DPhe-Arg-Trp-NH2, reference compound] | 5.3 ± 1.6 nM |  |  |  |  |  |  |  | 
CCCCCCCC(=O)N[C@@H](Cc1c[nH]cn1)C(=O)N[C@H](Cc1ccccc1)C(=O)N[C@@H](CCCNC(=N)N)C(=O)N[C@@H](Cc1csc2ccccc12)C(N)=O [Peptide 3, Octanoyl-His-DPhe-Arg-3Bal-NH2] (Octanoyl-H[dF]R[Bta]-NH2) | 2.4 ± 0.5 nM | −10 | 14.6 ± 3.9 nM | 52 ± 7 nM | 13 ± 3 nM | equipotent |  |  | mMC1R fold difference in EC50, more potent than reference peptide 1 [2]: 10 fold; mMC3R Fold Diff [3]: −11; mMC3R fold difference, more potent agonist than Ac-His-DPhe-Arg-Trp-NH2 ([3]; more potent than 1): 11 fold
CCCCCCCC(=O)N[C@@H](Cc1c[nH]cn1)C(=O)N[C@H](Cc1ccccc1)C(=O)N[C@@H](CCCNC(=N)N)C(=O)N1Cc2ccccc2C[C@H]1C(N)=O [Peptide 4, Octanoyl-His-DPhe-Arg-Tic-NH2] (Octanoyl-H[dF]R[Tic]-NH2) | 270 ± 20 nM | −20 | 7.4 ± 2.1 nM | 6900 ± 400 nM | 1700 ± 300 nM | decreased potencies | 120 | 50 | mMC3R Fold Diff [3]: 12; mMC5R fold less potent than peptide 1 [1]: 50 fold
CCCCCCCC(=O)N[C@@H](Cc1c[nH]cn1)C(=O)N[C@H](Cc1ccccc1)C(=O)N[C@@H](CCCNC(=N)N)C(=O)N[C@@H](Cc1ccccc1)C(N)=O [Peptide 5, Octanoyl-His-DPhe-Arg-Phe-NH2] (Octanoyl-H[dF]RF-NH2) | 26 ± 3 nM | −7 | 19.4 ± 2.1 nM | 290 ± 60 nM | 110 ± 10 nM | decreased potencies | 8 | 5 | 
CCCCCCCC(=O)N[C@@H](Cc1c[nH]cn1)C(=O)N[C@H](Cc1ccc(-c2ccccc2)cc1)C(=O)N[C@@H](CCCNC(=N)N)C(=O)N[C@@H](Cc1c[nH]c2ccccc12)C(N)=O [Peptide 7, Octanoyl-His-DBip-Arg-Trp-NH2] | 15 ± 4 nM | −40 | 3.7 ± 0.9 nM |  | 500 ± 200 nM | equipotent | 36 |  | mMC1R fold difference in EC50, more potent than reference peptide 1 [2]: 40 fold; mMC3R relative percentage of stimulation at 100 μM ([3]; 100000.0): 50%−65%; mMC3R relative percentage of stimulation at 100 μM [3, 6]: 60%; Kb [5]: 63.1 nM; mMC3R pharmacology class printed in Fold Diff column (Ant, SA) ([5]; Ant = antagonist, SA = some stimulatory activity at 100 µM): Ant
CCCCCCCC(=O)N[C@H](Cc1c[nH]cn1)C(=O)N[C@H](Cc1ccccc1)C(=O)N[C@@H](CCCNC(=N)N)C(=O)N[C@@H](Cc1c[nH]c2ccccc12)C(N)=O [Peptide 9, Octanoyl-DHis-DPhe-Arg-Trp-NH2] | 290 ± 40 nM |  | 230 ± 30 nM | 4200 ± 800 nM | 340 ± 30 nM | decreased potencies | 25 | 55 | mMC3R Fold Diff [3]: 7; mMC5R fold less potent than peptide 1 [1]: 55 fold
CCCCCCCC(=O)N[C@@H](Cc1c[nH]c2ccccc12)C(=O)N[C@H](Cc1ccccc1)C(=O)N[C@@H](CCCNC(=N)N)C(=O)N[C@@H](Cc1c[nH]c2ccccc12)C(N)=O [Peptide 10, Octanoyl-Trp-DPhe-Arg-Trp-NH2] (Octanoyl-W[dF]RW-NH2) | 58 ± 7 nM |  | 210 ± 30 nM |  | 180 ± 40 nM | decreased potencies | 13 | 11 | mMC1R pharmacology in words [2]: equipotent; mMC3R relative percentage of stimulation at 100 μM ([3]; 100000.0): 50%−65%
CC(=O)N[C@@H](Cc1c[nH]c2ccccc12)C(=O)N[C@H](Cc1cccc2ccccc12)C(=O)N[C@@H](CCCNC(=N)N)C(=O)N[C@@H](Cc1c[nH]c2ccccc12)C(N)=O [Peptide 19, Ac-Trp-DNal(1’)-Arg-Trp-NH2] (Ac-W[d1Nal]RW-NH2) | 3900 ± 2200 nM | 70 | 9700 ± 4700 nM | > 100000 nM | 12000 ± 4000 nM |  | 870 | 725 | 
CC(=O)N[C@@H](Cc1ccccc1)C(=O)N[C@H](Cc1ccc(-c2ccccc2)cc1)C(=O)N[C@@H](CCCNC(=N)N)C(=O)N[C@@H](Cc1c[nH]c2ccccc12)C(N)=O [Peptide 20, Ac-Phe-DBip-Arg-Trp-NH2] (Ac-F[dBip]RW-NH2) | 500 ± 70 nM | 71 | 10000 ± 4900 nM | > 100000 nM | 5400 ± 1600 nM |  | 395 | 94 | 
CC(=O)N[C@@H](Cc1ccccc1)C(=O)N[C@H](Cc1cccc2ccccc12)C(=O)N[C@@H](CCCNC(=N)N)C(=O)N[C@@H](Cc1c[nH]c2ccccc12)C(N)=O [Peptide 21, Ac-Phe-DNal(1’)-Arg-Trp-NH2] (Ac-F[d1Nal]RW-NH2) | 3800 ± 2100 nM | 28 | 3900 ± 1900 nM | > 100000 nM | 2800 ± 1000 nM |  | 205 | 720 | 
CC(=O)N[C@@H](Cc1cccnc1)C(=O)N[C@H](Cc1ccccc1)C(=O)N[C@@H](CCCNC(=N)N)C(=O)N[C@@H](Cc1ccc2ccccc2c1)C(N)=O [Peptide 23, Ac-3PAL-DPhe-Arg-Nal(2’)-NH2] (Ac-[3Pal][dF]R[2Nal]-NH2) | 240 ± 50 nM | 14 | 1900 ± 600 nM | > 100000 nM | 110 ± 20 nM |  | 8 | 45 | mMC1R fold decrease in potency compared to compound 1 [2]: 14 fold; mMC4R fold less potent than compound 1 [4]: 8 fold
CC(=O)N[C@@H](Cc1c[nH]c2ccccc12)C(=O)N[C@H](Cc1ccccc1)C(=O)N[C@@H](CCCNC(=N)N)C(=O)N[C@@H](Cc1cccc2ccccc12)C(N)=O [Peptide 24, Ac-Trp-DPhe-Arg-Nal(1’)-NH2] (Ac-W[dF]R[1Nal]-NH2) | 3000 ± 1200 nM | 23 | 3300 ± 1200 nM |  | 1100 ± 300 nM |  | 77 | 566 | mMC3R relative percentage of stimulation at 100 μM ([3]; 100000.0): 50%
CC(=O)N[C@@H](Cc1c[nH]c2ccccc12)C(=O)N[C@H](Cc1ccccc1)C(=O)N[C@@H](CCCNC(=N)N)C(=O)N[C@@H](Cc1csc2ccccc12)C(N)=O [Peptide 25, Ac-Trp-DPhe-Arg-3Bal-NH2] (Ac-W[dF]R[Bta]-NH2) | 4800 ± 1700 nM | 57 | 8000 ± 3000 nM | > 100000 nM | 7900 ± 2400 nM |  | 576 | 905 | mMC4R fold less potent than compound 1 [4]: 580 fold; mMC5R fold less potent than peptide 1 [1]: approximately 1000 fold
CC(=O)N[C@@H](Cc1c[nH]c2ccccc12)C(=O)N[C@H](Cc1ccccc1)C(=O)N[C@@H](CCCNC(=N)N)C(=O)N[C@H](Cc1ccc2ccccc2c1)C(N)=O [Peptide 26, Ac-Trp-DPhe-Arg-DNal(2’)-NH2] (Ac-W[dF]R[d2Nal]-NH2) | 5800 ± 600 nM | 167 | 23000 ± 7000 nM | > 100000 nM | 4300 ± 800 nM |  | 310 | 1094 | mMC1R fold decrease in potency compared to compound 1 [2]: > 160 fold; mMC5R fold less potent than peptide 1 [1]: approximately 1000 fold
CC(=O)N[C@@H](Cc1cccs1)C(=O)N[C@H](Cc1ccccc1)C(=O)N[C@@H](CCCNC(=N)N)C(=O)N[C@@H](Cc1csc2ccccc12)C(N)=O [Peptide 27, Ac-2Thi-DPhe-Arg-3Bal-NH2] (Ac-[2Thi][dF]R[Bta]-NH2) | 970 ± 290 nM | 45 | 6400 ± 1600 nM | > 100000 nM | 1300 ± 300 nM |  | 91 | 183 | 
CC(=O)N[C@@H](Cc1cccs1)C(=O)N[C@H](Cc1ccccc1)C(=O)N[C@@H](CCCNC(=N)N)C(=O)N[C@@H](Cc1ccc2ccccc2c1)C(N)=O [Peptide 28, Ac-2Thi-DPhe-Arg-Nal(2’)-NH2] (Ac-[2Thi][dF]R[2Nal]-NH2) | 76 ± 18 nM | 19 | 2600 ± 1300 nM | 12000 ± 6000 nM | 450 ± 190 nM |  | 33 | 14 | mMC3R Fold Diff [3]: 22; mMC5R fold less potent than peptide 1 [1]: 14 fold; fold more potent at the mMC5R compared to the mMC1R ([1]; selectivity, agonist EC50): 35 fold; fold more potent at the mMC5R compared to the mMC3R ([1]; selectivity, agonist EC50): 163 fold; fold more potent at the mMC5R compared to the mMC4R ([1]; selectivity, agonist EC50): 6 fold
CC(=O)N[C@@H](Cc1c[nH]cn1)C(=O)N[C@H](Cc1ccc(I)cc1)C(=O)N[C@@H](CCCNC(=N)N)C(=O)N1Cc2ccccc2C[C@H]1C(N)=O [Peptide 31, Ac-His-(pI)DPhe-Arg-Tic-NH2] (Ac-H[dPhe(4-I)]R[Tic]-NH2) | 130 ± 30 nM | −6 | 24 ± 4 nM | 2900 ± 400 nM | 640 ± 60 nM | less potent | 46 | 25 | selectivity for the mMC1R, fold difference as compared to the mMC3R ([2]; agonist EC50): 120 fold; selectivity for the mMC1R, fold difference as compared to the mMC4R ([2]; agonist EC50): 26 fold; selectivity for the mMC1R, fold difference as compared to the mMC5R ([2]; agonist EC50): 6 fold; mMC1R pharmacology in words [2]: more potent; mMC3R Fold Diff [3]: 5
CC(=O)N[C@@H](Cc1c[nH]cn1)C(=O)N[C@H](Cc1ccc(I)cc1)C(=O)N[C@@H](CCCNC(=N)N)C(=O)N[C@@H](Cc1ccccc1)C(N)=O [Peptide 32, Ac-His-(pI)DPhe-Arg-Phe-NH2] (Ac-H[dPhe(4-I)]RF-NH2) | 18.4 ± 5.7 nM |  | 91 ± 13 nM |  | 80 ± 7 nM | equipotent agonists | 6 |  | mMC3R relative percentage of stimulation at 100 μM [3, 6]: 60% at 100 μM
